Experimental data as given in patent publication US11737462B2, “Methods for modulating plant response to environmentally-induced stress” (Howard University, priority 2012, dated 2023).

Tests used:
[1] = target: RACK1A (Arabidopsis thaliana, UniProt O24456); assay: in-vitro assay of tyrosine phosphorylation (Y248) based homodimerization of RACK1A; format: biochemical
Excerpt: A crystal structure of Arabidopsis thaliana RACK1 protein has been reported. Deducing the crystal structure of the Arabidopsis RACK1A protein highlighted the potential functional residues of the protein. Noteworthy in the structure was the functionally conserved tyrosine phosphorylation residue (Y248) that has been implicated in RACK1A function. Therefore, it was undertaken to identify a chemical inhibitor of Y248 phosphorylation that would serve as a potential “anti-stress” compound in countering environmental stresses in plants. In order to identify small compounds occupying the Y248 pocket, docking simulations with a subset of 30,000 compounds were performed. Based on ranking with an energy cut-off of 25 kcal/mol, 3,011 compounds were then selected. Upon further re-ranking, 46 lead compounds were identified and 11 compounds were screened for their efficacy in an in-vitro assay. […] Those six compounds include SD-29, SD-29-9, SD-29-11, SD-29-22, SD-34, and SD-125.

[2] = system: Arabidopsis plants; assay: salt stress (150 mM salt) in Arabidopsis plants; format: in vivo, Arabidopsis thaliana; details: 100 μM compound plus 150 mM salt, two weeks, 22° C., vs DMSO plus salt
Protocol: In the examples described herein, the test compounds (e.g., SD-29 or analogs thereof) were dissolved in dimethyl sulfoxide (DMSO) to provide a 20 mM concentration. Micromolar concentrations were then prepared as needed by addition to the water incubation media. Unless stated otherwise, the experimental plants were incubated with the roots immersed in the water containing the compound. The control plants received only DMSO in the same amount as that of the compound. In the first experiment, Arabidopsis plants were treated with 150 mM salt for two weeks. One plant in each group was treated with 100 μM SD-29 plus 150 mM salt and the other plant in each group was treated with DMSO plus 150 mM salt. […] The plants were treated with the indicated treatment twice during the experiment.

[3] = system: bean plants; assay: salt-induced stress in bean plants; format: in vivo; details: 60 μM compound plus 250 mM NaCl, 96 hours, about 24° C.
Protocol: In the examples described herein, the test compounds (e.g., SD-29 or analogs thereof) were dissolved in dimethyl sulfoxide (DMSO) to provide a 20 mM concentration. Micromolar concentrations were then prepared as needed by addition to the water incubation media. Unless stated otherwise, the experimental plants were incubated with the roots immersed in the water containing the compound. The control plants received only DMSO in the same amount as that of the compound. Salt-induced stress was evaluated with bean plants at room temperature (about 24° C.) for 96 hours. All plants received sufficient incubation media to last the seven days. Plant A received 60 μM SD-29 plus 250 mM NaCl and plant B received 250 mM NaCl in the incubation medium.

[4] = system: pepper plants; assay: salt-induced stress in pepper plants; format: in vivo; details: 60 μM compound plus 250 mM NaCl, 48 hours, about 24° C.
Protocol: In the examples described herein, the test compounds (e.g., SD-29 or analogs thereof) were dissolved in dimethyl sulfoxide (DMSO) to provide a 20 mM concentration. Micromolar concentrations were then prepared as needed by addition to the water incubation media. Unless stated otherwise, the experimental plants were incubated with the roots immersed in the water containing the compound. The control plants received only DMSO in the same amount as that of the compound.
Salt-induced stress was evaluated with pepper plants at room temperature (about 24° C.) for 48 hours. All plants received sufficient incubation media to last the seven days. Plant A received 60 μM SD-29 plus 250 mM NaCl and plant B received 250 mM NaCl in the incubation medium with DMSO.

[5] = system: Cu/Zn SOD; assay: native gel analysis of superoxide dismutase activity in pepper leaf lysate; format: in vivo; details: 60 μM compound plus 250 mM NaCl, vs DMSO treated plants
Protocol: Native gel analysis was performed on a lysate prepared from the pepper plant leaves in FIG. 8. The gel is stained for detecting enzymatic activity of different isoforms of superoxide dismutase—key enzymes that detoxify the reactive oxygen species which usually develop during the stress conditions. […] Therefore, it appears that SD-29 may help detoxify the cellular reactive oxygen species generated during the salt stress conditions.

[6] = target: T1, rice RACK1A (Oryza sativa subsp. japonica, UniProt P49027); assay: western blot with anti-pY248 of rice leaf lysates under salt stress; format: in vivo; details: 60 μM compound and 250 mM NaCl, 75 μg protein per lane
T1 construct: from tissue; host or cells: rice leaves
Protocol: The rice leaves were also analyzed by Western blot. Lysates were prepared from the leaves and western blot analysis was carried out using standard methods. 75 μg protein were loaded per lane. The membrane containing transferred proteins were probed with anti-pY248, which is an antibody raised to specifically detect phosphorylated tyrosine at residue 248 of RACK1A.

[7] = system: rice leaves; assay: uptake of salts from the incubation medium by rice leaves; format: in vivo; details: 60 μM compound, 250 mM NaCl, vs non-treated leaves
Protocol: The effect of SD-29 on modulating salt-induced stress was evaluated with rice detached leaves at room temperature (about 24° C.) for seven days in a water incubation medium. All plants received sufficient incubation medium to last the seven days. Plant A (left most) received 250 mM NaCl plus DMSO, Plant B (right of Plant A) received 60 μM SD-29 and 250 mM NaCl, and plant D received 60 μM SD-29 in the incubation medium. The incubation medium of Plant C was untreated. To examine whether the salt stress resistance comes from the differential uptake of sodium ions due to the drug treatment, the uptake of salts from the incubation medium was assayed (leaves from FIG. 5). […] The base point is indicated with 250 mM of salt line.

[8] = system: RACK1A:GFP; assay: RACK1A:GFP expression in transformed Arabidopsis plants; format: in vivo, Arabidopsis thaliana; details: 60 μM compound with 250 mM salt for 6 hours
Protocol: Arabidopsis plants transformed with a RAC[…]:GFP construct were analyzed to determine the effect of SD-29 on expression of RAC[…]. The experimental plant was treated with 60 μM SD-29 with 250 mM salt for 6 hours. Controls were treated with and without salt. […] It is quite possible that downregulation of RAC[…] expression by SD-29 may be the cellular mechanism that allow the plants to withstand salt stress.

[9] = system: Arabidopsis leaves; assay: H2O2 accumulation in Arabidopsis leaves (DAB staining); format: in vivo, Arabidopsis thaliana; details: 5 μM H2O2 and DAB overnight, vs DMSO only
Protocol: Arabidopsis leaves were treated with 5 μM H2O2 and 3,3′-diaminobenzidene (DAB) with and without SD-29 overnight. A control included DMSO only (included in the same volume as SD-29). The brown spots indicate sites of accumulation of H2O2.

RACK1A, sequence (O24456 whole entry): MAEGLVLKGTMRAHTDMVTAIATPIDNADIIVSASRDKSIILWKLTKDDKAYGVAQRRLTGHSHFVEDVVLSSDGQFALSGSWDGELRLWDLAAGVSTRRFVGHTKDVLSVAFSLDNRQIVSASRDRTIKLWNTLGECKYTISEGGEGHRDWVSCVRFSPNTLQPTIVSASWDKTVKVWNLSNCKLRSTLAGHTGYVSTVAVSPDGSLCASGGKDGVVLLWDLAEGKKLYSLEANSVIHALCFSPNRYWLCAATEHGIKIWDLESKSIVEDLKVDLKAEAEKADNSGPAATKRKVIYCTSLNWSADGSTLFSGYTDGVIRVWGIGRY
T1 sequence (P49027 whole entry): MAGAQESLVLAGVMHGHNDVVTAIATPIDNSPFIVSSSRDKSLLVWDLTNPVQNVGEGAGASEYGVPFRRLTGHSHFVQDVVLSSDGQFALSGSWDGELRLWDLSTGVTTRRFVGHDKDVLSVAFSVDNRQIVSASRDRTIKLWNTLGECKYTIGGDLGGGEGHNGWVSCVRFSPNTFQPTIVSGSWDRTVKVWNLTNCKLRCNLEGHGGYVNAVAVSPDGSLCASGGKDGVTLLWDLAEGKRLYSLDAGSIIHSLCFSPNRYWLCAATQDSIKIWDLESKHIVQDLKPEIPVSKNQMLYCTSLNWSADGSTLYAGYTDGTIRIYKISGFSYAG

IC50 ([1]; data not shown): 12.5 µM
SMILES: Nn1c(S)nnc1-c1ccc(F)cc1 [SD-29]
tyrosine phosphorylation (Y248) based homodimerization of RACK1A proteins ([1]; in-vitro assay): prevent tyrosine phosphorylation (Y248) based homodimerization of RACK1A proteins
salt stress induced chlorosis of Arabidopsis plants [2]: effective to allow the Arabidopsis plants to withstand the salt stress induced chlorosis
bean plant condition in high salt [3]: thrived (did not wilt) in the high salt conditions
pepper plant condition in high salt [4]: thrived in the high salt conditions (with no chlorosis)
cytoplasmic and chloroplastic Cu/Zn SOD enzyme activities in pepper leaves [5]: caused upregulation of both the cytoplasmic (lower band) and chloroplastic (upper band) Cu/Zn SOD enzyme activities
rice RACK1A tyrosine (Y248) phosphorylation under salt stress [6]: significantly inhibited rice RACK1A tyrosine phosphorylation
sodium ions remaining in the incubation medium [7]: more sodium ions remained in the incubation medium
RACK1A:GFP expression [8]: down regulation of RACK1A:GFP expression
H2O2 accumulation in leaves [9]: prevents H2O2 accumulation in the leaves
